From US7452865B2, “Antagonistic analogs of GH RH (2003)” (The Administrare's of the Tulane Educational Fund, priority 2004, dated 2008)
Square brackets hold non-standard residues; d marks the D form. Peptide text beside a SMILES is read from it. * marks the point of attachment. Phe(4-amidino) = N=C(N)c1ccc(C[C@H](N)C(=O)O)cc1; Phe(4-Cl) = N[C@@H](Cc1ccc(Cl)cc1)C(=O)O; hArg = N=C(N)NCCCC[C@H](N)C(=O)O; Nle = CCCC[C@H](N)C(=O)O; Abu = CC[C@H](N)C(=O)O; PhAc = O=C(Cc1ccccc1)*

Key:
IGF-I = experiment: PC-3 xenografts, Experiment 1: serum IGF-I (RIA); type: in vivo, nude mice; settings: 10 μg/day s.c., 28 days
Outline: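 Male nude mice bearing s.c. PC-3 prostate tumors (~50 mm^3) given single daily s.c. injections, 10 μg/day, for 28 days, sacrificed day 29. IGFs acid-ethanol extracted from serum or tumor cytosol, then measured by RIA against IGF-I or recombinant human IGF-II standards.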

[1] = system: hGH-RH(1-29)NH2 induced GH release; experiment: Inhibition of GH release in superfused rat pituitary system; type: cell-based
Outline: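 GH output was quantified by double-antibody RIA in superfusates of rat pituitary cells. Peptides were applied for 9 min at various concentrations before a 3-min 1 nM hGH-RH(1-29)NH2 pulse, with further pulses 30–120 min later; net integral responses given as percent of the original response.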

## CCCC[C@H](NC(=O)[C@@H](NC(=O)[C@H](CC(=O)O)NC(=O)[C@H](CCC(N)=O)NC(=O)[C@H](CC(C)C)NC(=O)[C@H](CC(C)C)NC(=O)[C@H](CCCCN)NC(=O)[C@H](CCCNC(=N)N)NC(=O)[C@H](C)NC(=O)[C@H](CO)NC(=O)[C@H](CC(C)C)NC(=O)[C@H](CCC(N)=O)NC(=O)[C@H](CC)NC(=O)[C@H](CC(C)C)NC(=O)[C@@H](NC(=O)[C@H](CCCCN)NC(=O)[C@H](CCCNC(=N)N)NC(=O)[C@H](Cc1ccc(OC)cc1)NC(=O)[C@H](Cc1ccc(C(=N)N)cc1)NC(=O)[C@H](CC(N)=O)NC(=O)[C@@H](NC(=O)[C@H](Cc1ccc(Cl)cc1)NC(=O)[C@@H](NC(=O)[C@H](C)NC(=O)[C@H](CC(=O)O)NC(=O)[C@@H](CCCNC(=N)N)NC(=O)[C@H](Cc1ccc(O)cc1)NC(=O)Cc1ccccc1)[C@@H](C)CC)[C@@H](C)O)C(C)C)[C@@H](C)CC)C(=O)N[C@H](CCCNC(=N)N)C(=O)N[C@@H](CCCCNC(=N)N)C(N)=O [Peptide 67, [PhAc-Tyr^1, D-Arg^2, Phe(pCl)^6, Amp^9, Tyr(Me)^10, Abu^15, Nle^27, D-Arg^28, Har^29]hGH-RH(1-29)NH2] (PhAc-Y[dR]DAI[Phe(4-Cl)]TN[Phe(4-amidino)]Y(Me)RKVL[Abu]QLSARKLLQDI[Nle][dR][hArg]-NH2)
IGF-I
  Serum IGF-I: 128 ± 10.6 ng/mL
IGF-I; vs control
  Serum IGF-I (% inhibition): (14%)
[1]; antagonist 30 nM, 1 nM hGH-RH(1-29)NH2 at 0 min
  GH response (% of control) 0 min: 28 % of control
[1]; antagonist 30 nM, 1 nM hGH-RH(1-29)NH2 at 30 min
  GH response (% of control) 30 min: 15 % of control
[1]; antagonist 30 nM, 1 nM hGH-RH(1-29)NH2 at 60 min
  GH response (% of control) 60 min: 18 % of control
[1]; antagonist 30 nM, 1 nM hGH-RH(1-29)NH2 at 90 min
  GH response (% of control) 90 min: 20 % of control
[1]; antagonist 30 nM, 1 nM hGH-RH(1-29)NH2 at 120 min
  GH response (% of control) 120 min: 23 % of control
[1]; general statement, in vitro and in vivo
  endocrine antagonistic potency: inhibition of the GH release stimulated by hGH-RH(1-29)NH2 (in words): high endocrine antagonistic potencies
